From patent US20170216213A1, “DIRECTLY COMPRESSIBLE POLYVINYL ALCOHOLS” (Merck Patent GmbH, priority 2014, published 2017)

Test: Ascorbic acid in-vitro release test (USP Apparatus 2, paddle)
Assay type: physicochemical
Conditions: from PVA/MCC matrix tablets (samples 1 and 2)
Description: 9. Ascorbic acid release test: The ascorbic acid-containing compressed tablets (from the compressions with a pressing force of 20 kN) are measured in a SOTAX (Allschwil, Switzerland) in-vitro release apparatus using the “Apparatus 2 (Paddle Apparatus)” described in USP 36 under <711> and under the conditions described therein for “Extended-release dosage forms” (USP=United States Pharmacopoeia). The sampling is carried out automatically via a hose pump system with subsequent measurement in an 8453 spectrometer (Agilent Technologies, USA) and a flow cell.
The averaged values are obtained from the release tests of in each case 6 ascorbic acid-containing tablets pressed with a pressing force of 20 kN.
Measurement Apparatuses and Measurement Parameters:
1. —Sotax AT7s release apparatus fitted with Apparatus 2 (Paddle Apparatus in accordance with USP 36) • Temperature: 37° C.+/−0.5° C. • Paddle speed: 100 rpm • Volume of release medium per measurement vessel: 900 ml • Tablet weight: 500 mg • Total run time of the measurement: 720 min. (with sampling after 15, 30, 45, 60, 120, 180, 240, 300, 360, 420, 480, 540, 600, 660, 720 min.)
2. —Hose pump for sampling: Sotax CY 7-50 (SOTAX, Switzerland)
3. —8453 spectrometer (Agilent Technologies, USA) • Measurement at 244 nm in a 2 mm flow measurement cell • Evaluation via Excel • Medium preparation: Dosa Prep X8 (DOSATEC GmbH, Germany) […]

Duration of retarded in-vitro release: over several hours
SMILES: O=C1O[C@H]([C@@H](O)CO)C(O)=C1O [ascorbic acid, L(+)-ascorbic acid]
